The text below walks through data of PubChem BioAssay (NCI).

Structures are written as SMILES.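 Five compound concentrations were applied to cells in 96-well plates for 48 hours; endpoints were derived by simple linear interpolation of the resulting dose-response curve. At the GI50, growth is halved. Definition used: TGI = concentration required for complete inhibition of growth.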

Test systems include HOP-62 NSCLC; HL-60(TB) leukemia; PC-3 prostate; 786-0 renal; ACHN renal; NCI-H23 lung; RXF 393 renal; MDA-MB-231 breast; CCRF-CEM leukemia; SNB-75 CNS.
Common to all, as to test: NCI-60 cell line screen, 48 h

As to `O=C(O[C@H]1CN[C@H](C#Cc2cc3ncnc(Nc4ccc(Cc5ccccc5)cc4)c3s2)C1)N1CCOCC1`, the GI50 in the assay with HOP-62 NSCLC is 5.15 µM; with HL-60(TB) leukemia, 5.5 µM; in the assay with PC-3 prostate, 8.56 µM; in the assay with 786-0 renal it was 7.3 µM; with ACHN renal it was 3.53 µM; in the assay with NCI-H23 lung, 6.35 µM. The GI50 is 1350 nM with RXF 393 renal, 4.56 µM in the assay on MDA-MB-231 breast, 6.98 µM in the assay on CCRF-CEM leukemia and 1.87 µM with SNB-75 CNS. Also, the TGI with HOP-62 NSCLC is greater than 14.1 µM; with HL-60(TB) leukemia, 17.1 µM; with PC-3 prostate, greater than 25 µM; in the assay with 786-0 renal it was greater than 25 µM; in the assay on ACHN renal, greater than 25 µM; with NCI-H23 lung it was 24.9 µM. The TGI with RXF 393 renal is 7.11 µM; with MDA-MB-231 breast, 14.2 µM; with CCRF-CEM leukemia it was greater than 25 µM; in the assay on SNB-75 CNS, greater than 19.4 µM.

On to `Oc1ccc(Cl)cc1Cc1cc(Cl)cc(Cc2cc(Cl)ccc2O)c1O`, for which the TGI was determined as 10.9 µM with HOP-62 NSCLC; 8.38 µM in the assay with HL-60(TB) leukemia; 7.7 µM in the assay on PC-3 prostate; 11.3 µM in the assay on 786-0 renal; 7.64 µM in the assay on ACHN renal; 6.62 µM in the assay with NCI-H23 lung. Further, the TGI with RXF 393 renal worked out at 8.86 µM; in the assay with MDA-MB-231 breast, 8.83 µM; with CCRF-CEM leukemia, 15.3 µM; in the assay on SNB-75 CNS, 10.3 µM.

Consider `O=C(c1ccc(F)c(F)c1Nc1ccc(I)cc1F)N1CC(O)([C@H]2CCCCN2)C1`, for which the GI50 in the assay on HOP-62 NSCLC was 1.97 µM; in the assay with HL-60(TB) leukemia, 0.173 µM; in the assay with PC-3 prostate it was 9.68 µM; in the assay on 786-0 renal it was 7.72 µM; in the assay with ACHN renal, 1.86 µM; in the assay with NCI-H23 lung it was 1.09 µM. Moreover, the GI50 in the assay with RXF 393 renal is 2080 nM; in the assay with MDA-MB-231 breast, 0.579 µM; with CCRF-CEM leukemia it was 12.5 µM; in the assay with SNB-75 CNS, 5.96 µM. Besides, the TGI was determined as 17.3 µM with HOP-62 NSCLC; 5.71 µM in the assay on HL-60(TB) leukemia; 22.3 µM with PC-3 prostate; 21.7 µM in the assay with 786-0 renal; 15.8 µM in the assay on ACHN renal; 13.1 µM in the assay with NCI-H23 lung. The TGI in the assay with RXF 393 renal turned out to be 8.76 µM; with MDA-MB-231 breast it was 5.26 µM; in the assay on CCRF-CEM leukemia, 29.4 µM; with SNB-75 CNS, 20.5 µM.

As for `O=C(/C=C\c1cccc([N+](=O)[O-])c1)c1ccccc1`, the GI50 in the assay on HOP-62 NSCLC is 19.5 µM; in the assay with HL-60(TB) leukemia, 2.91 µM; with PC-3 prostate, 2.67 µM; in the assay on 786-0 renal, 4.95 µM; in the assay on ACHN renal, 1.9 µM; in the assay on NCI-H23 lung it was 6.16 µM. The GI50 is 2010 nM in the assay on RXF 393 renal, 9.72 µM with MDA-MB-231 breast, 0.568 µM with CCRF-CEM leukemia and 9.82 µM in the assay with SNB-75 CNS. Also, the TGI in the assay on HOP-62 NSCLC is 46.6 µM; in the assay with HL-60(TB) leukemia, greater than 100 µM; with PC-3 prostate it was 11.3 µM; in the assay on 786-0 renal, 12.7 µM; in the assay on ACHN renal, 3.81 µM; with NCI-H23 lung, 21.3 µM. Further, the TGI with RXF 393 renal is 5.15 µM; in the assay with MDA-MB-231 breast, 25.1 µM; in the assay with CCRF-CEM leukemia, greater than 100 µM; in the assay on SNB-75 CNS, 30.5 µM.

On to `N#Cc1cc(-c2ccccc2)[nH]c1-c1nccc2ccccc12`, for which the GI50 in the assay on HOP-62 NSCLC was 29 µM; in the assay on HL-60(TB) leukemia, 8.52 µM; in the assay with PC-3 prostate, 11.8 µM; in the assay with 786-0 renal, 26.9 µM; with ACHN renal, 18.5 µM; in the assay with NCI-H23 lung it was 6.31 µM. The GI50 was 13600 nM with RXF 393 renal, 19.4 µM in the assay with MDA-MB-231 breast, 14 µM in the assay on CCRF-CEM leukemia and 13.7 µM in the assay with SNB-75 CNS. In addition, the TGI is greater than 100 µM in the assay on HOP-62 NSCLC; 82.6 µM with HL-60(TB) leukemia; greater than 100 µM in the assay on PC-3 prostate; greater than 100 µM in the assay on 786-0 renal; greater than 100 µM with ACHN renal; greater than 100 µM with NCI-H23 lung. Also, the TGI in the assay with RXF 393 renal is 89.1 µM; in the assay on MDA-MB-231 breast, greater than 100 µM; with CCRF-CEM leukemia, greater than 100 µM; with SNB-75 CNS, greater than 100 µM.

For `Cn1c(=O)c(Sc2ccccc2F)cc2cnc(NC3CCOCC3)nc21`, the GI50 in the assay with HOP-62 NSCLC, in the assay on HL-60(TB) leukemia, in the assay with PC-3 prostate, in the assay on 786-0 renal, with ACHN renal and in the assay on NCI-H23 lung was greater than 25 µM in each case. For the same compound, the GI50 is greater than 25000 nM in the assay on RXF 393 renal, greater than 25 µM with MDA-MB-231 breast, greater than 25 µM with CCRF-CEM leukemia and greater than 25 µM in the assay on SNB-75 CNS. Further, the TGI with HOP-62 NSCLC, in the assay with HL-60(TB) leukemia, in the assay with PC-3 prostate, with 786-0 renal, with ACHN renal and in the assay with NCI-H23 lung was greater than 25 µM each time. The TGI in the assay with RXF 393 renal, with MDA-MB-231 breast, with CCRF-CEM leukemia and in the assay with SNB-75 CNS was greater than 25 µM in each case.

With `O=C(/C=C/c1ccccc1Cl)c1ccc(O)cc1`, the GI50 in the assay on HOP-62 NSCLC was 20.4 µM; in the assay with HL-60(TB) leukemia, 3.22 µM; in the assay on PC-3 prostate it was 5.65 µM; in the assay on 786-0 renal, 15.8 µM; in the assay with ACHN renal, 6.99 µM; with NCI-H23 lung it was 10.6 µM. Further, the GI50 was 1970 nM in the assay with RXF 393 renal, 13.6 µM with MDA-MB-231 breast, 6.18 µM in the assay on CCRF-CEM leukemia and 10.6 µM with SNB-75 CNS. Also, the TGI in the assay with HOP-62 NSCLC is 37.3 µM; in the assay on HL-60(TB) leukemia it was greater than 23.2 µM; in the assay with PC-3 prostate it was 26.5 µM; in the assay on 786-0 renal it was 30 µM; with ACHN renal, 19.2 µM; in the assay on NCI-H23 lung it was 31.5 µM. Moreover, the TGI in the assay with RXF 393 renal was found to be 5.59 µM; with MDA-MB-231 breast, 31 µM; in the assay with CCRF-CEM leukemia, 35 µM; in the assay with SNB-75 CNS it was 24.5 µM.
